From patent publication US20060194800A1, “Pteridine derivatives as nitric oxide synthase activators” (University of Strathclyde, priority 2005, published 2006)
“Also recorded” adds a separate entry of the source.

What was measured:
eNOS = biological target: T1, eNOS (Sus scrofa, UniProt Q28969); test: Endothelial cell assay, nitric oxide (NO2+NO3) production; format: cell-based, porcine; details: 30 μM in DMSO, seven days, DAHP-depleted endothelial cells
T1 construct: endothelial cells that produce eNOS; endogenous in cells; host or cells: primary porcine pulmonary artery endothelial cells
T1 sequence (Q28969 2-1205 limits assumed): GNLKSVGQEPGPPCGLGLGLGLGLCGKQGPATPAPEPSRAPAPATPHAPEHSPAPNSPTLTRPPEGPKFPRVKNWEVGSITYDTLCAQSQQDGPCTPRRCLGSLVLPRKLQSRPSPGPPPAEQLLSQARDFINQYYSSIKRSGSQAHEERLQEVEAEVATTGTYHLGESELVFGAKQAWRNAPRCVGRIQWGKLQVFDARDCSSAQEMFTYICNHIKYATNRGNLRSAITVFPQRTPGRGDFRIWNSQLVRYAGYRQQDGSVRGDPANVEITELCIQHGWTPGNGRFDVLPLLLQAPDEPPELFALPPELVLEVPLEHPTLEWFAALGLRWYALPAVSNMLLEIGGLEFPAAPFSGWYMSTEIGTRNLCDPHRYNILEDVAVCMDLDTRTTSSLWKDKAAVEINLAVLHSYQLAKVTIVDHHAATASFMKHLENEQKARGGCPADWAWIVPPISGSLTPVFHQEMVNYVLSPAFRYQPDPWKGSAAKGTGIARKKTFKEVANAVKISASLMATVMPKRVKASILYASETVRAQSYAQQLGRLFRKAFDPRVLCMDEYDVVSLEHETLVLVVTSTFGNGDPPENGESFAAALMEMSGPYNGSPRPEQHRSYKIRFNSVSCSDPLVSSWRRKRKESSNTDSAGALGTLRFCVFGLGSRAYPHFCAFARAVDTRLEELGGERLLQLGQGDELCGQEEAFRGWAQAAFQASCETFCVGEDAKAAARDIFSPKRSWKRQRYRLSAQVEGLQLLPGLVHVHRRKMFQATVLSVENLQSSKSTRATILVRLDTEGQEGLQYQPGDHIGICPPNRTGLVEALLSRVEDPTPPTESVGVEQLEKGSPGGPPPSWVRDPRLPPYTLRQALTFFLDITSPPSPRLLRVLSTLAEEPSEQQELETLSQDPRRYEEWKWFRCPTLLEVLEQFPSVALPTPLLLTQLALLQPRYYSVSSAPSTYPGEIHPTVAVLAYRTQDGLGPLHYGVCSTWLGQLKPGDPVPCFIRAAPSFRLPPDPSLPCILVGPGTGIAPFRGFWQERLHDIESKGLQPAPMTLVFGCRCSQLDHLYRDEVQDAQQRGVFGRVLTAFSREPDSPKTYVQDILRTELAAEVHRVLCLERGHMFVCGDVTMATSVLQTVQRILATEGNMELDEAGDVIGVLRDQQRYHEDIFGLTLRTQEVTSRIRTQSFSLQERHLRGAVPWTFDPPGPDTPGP
Description: The arterial assay is sensitive but slow to perform, and therefore a wider range of compounds was investigated in whole cell preparations. Tests have been carried out using endothelial cells that produce eNOS and stimulated macrophages that produce iNOS. Endothelial cells were isolated from porcine pulmonary artery and grown to confluency in T75 flasks. Subsequently, the cells were seeded into 6-well plates. At confluency, the medium (1 ml/well) was changed and the relevant treatment introduced to all wells in each plate (one treatment/plate). The cells were incubated for a further 7-day period and the experiment was terminated. The media from the wells of respective plates was combined (˜6 mls) and evaporated to approximately 500 μl (˜10-fold). A 50 μl aliquot was removed and any NO3 was converted to NO2 using the NO3 conversion method (Calbiochem Cat No 482702). These treated samples were then assayed using the Greiss reaction as described above giving the content of the combination of (NO2+NO3). WSG1002, as a representative compound, was incubated with a preparation of endothelial cells over seven days in order to accumulate sufficient nitric oxide for assay as described above. Controls included vehicle (0.5% DMSO) and L-NAME (an established NOS inhibitor). WSG1002 caused a doubling of nitric oxide compared with vehicle control.

iNOS = biological target: T2, iNOS (Mus musculus, UniProt P29477); test: Macrophage assay (iNOS), macrophages depleted of tetrahydrobiopterin by DAHP; format: cell-based
T2 construct: stimulated macrophages that produce iNOS; endogenous in cells; host or cells: primary mouse macrophages (from femur), LPS-stimulated, DAHP-treated
T2 sequence (P29477 whole entry): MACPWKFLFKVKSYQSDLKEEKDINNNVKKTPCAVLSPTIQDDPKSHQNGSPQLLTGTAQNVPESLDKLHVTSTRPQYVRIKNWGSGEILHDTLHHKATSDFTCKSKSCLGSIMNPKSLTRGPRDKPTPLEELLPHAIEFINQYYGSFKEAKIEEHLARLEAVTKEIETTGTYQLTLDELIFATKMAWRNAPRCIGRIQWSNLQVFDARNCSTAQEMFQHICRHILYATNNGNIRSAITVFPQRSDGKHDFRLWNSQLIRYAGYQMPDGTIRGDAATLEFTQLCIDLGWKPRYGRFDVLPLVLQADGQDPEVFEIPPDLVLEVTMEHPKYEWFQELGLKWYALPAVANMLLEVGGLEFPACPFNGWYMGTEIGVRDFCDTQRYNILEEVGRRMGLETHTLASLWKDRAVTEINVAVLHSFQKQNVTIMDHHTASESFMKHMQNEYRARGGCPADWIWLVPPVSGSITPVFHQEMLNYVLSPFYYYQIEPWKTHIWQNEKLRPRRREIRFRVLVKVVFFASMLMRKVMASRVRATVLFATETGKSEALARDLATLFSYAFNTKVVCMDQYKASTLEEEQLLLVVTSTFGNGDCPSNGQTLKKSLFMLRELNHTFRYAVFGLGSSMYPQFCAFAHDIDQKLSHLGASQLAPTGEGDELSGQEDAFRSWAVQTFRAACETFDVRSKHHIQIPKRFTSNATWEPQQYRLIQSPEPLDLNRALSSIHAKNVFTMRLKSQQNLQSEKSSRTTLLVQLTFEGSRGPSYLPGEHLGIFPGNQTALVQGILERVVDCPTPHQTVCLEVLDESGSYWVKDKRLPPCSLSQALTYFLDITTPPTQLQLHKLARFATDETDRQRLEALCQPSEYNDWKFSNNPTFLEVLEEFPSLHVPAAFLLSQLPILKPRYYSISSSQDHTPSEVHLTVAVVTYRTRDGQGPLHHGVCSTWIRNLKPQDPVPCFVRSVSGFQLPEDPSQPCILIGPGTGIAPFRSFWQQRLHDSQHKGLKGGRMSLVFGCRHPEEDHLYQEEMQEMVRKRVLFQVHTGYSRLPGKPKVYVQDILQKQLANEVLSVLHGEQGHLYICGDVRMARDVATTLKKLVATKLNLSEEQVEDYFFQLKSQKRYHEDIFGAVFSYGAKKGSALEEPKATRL
Description: This is a cell based assay with lipopolysaccharide stimulated macrophages in which nitric oxide is produced by the action of iNOS. Primary cultures of macrophage cells isolated from mouse femur were produced over a 7 day period. At this stage the cells were seeded into 96-well culture plates at a density of 2×10^5 cells per well. After further incubation for 24 hrs, the well media was changed and the relevant treatment was introduced. The cells were then incubated for a further 72 hrs before 50 μl was removed from each well and combined with 100 μl of Greiss reagent for NO2 determination. All treatments were performed in triplicate. In each plate, 3 wells were designated control i.e. media change only-no LPS. These samples represent basal NO2 output over 72 hrs. 3 wells were used for LPS (0.5 μg/ml) stimulation alone and 3 wells were used for LPS+0.05% DMSO. This DMSO concentration was present in all subsequent analogue treated wells. All analogues were tested at 1.0 and 10 μM. In another set of experiments, the assay was repeated with the inclusion of a step to deplete endogenous tetrahydrobiopterin as in the artery ring studies. DAHP pre-treatment was employed to deplete the macrophage cells of endogenous tetrahydrobiopterin. In these experiments, DAHP (10^−2 M) was added to the cells for 24 hrs prior to seeding into 96-well plates and for 24 hrs following the seeding procedure. Thereafter, DAHP was present throughout the analogue treatment period of 72 hrs. […] Macrophages were initially depleted of tetrahydrobiopterin by incubation with DAHP.

rat pulmonary artery = test: Rat pulmonary artery ring relaxation (endogenous tetrahydrobiopterin present); details: normal rings, phenylephrine-contracted
Description: (§1) Rings (5 mm long) of rat pulmonary artery and aorta, were supported on a pair of intraluminal wires at 1 gm tension for one hour and then contracted with their EC50 phenylephrine concentration, which for pulmonary artery was 3.6×10^−8 M (derived from preliminary experiments) and for aorta was 11.8×10^−8 M (from the previously published literature). The rings were then relaxed with carbachol (10 μM). If the relaxation to carbachol was >75%, then the tissues were used to generate dose responses by addition of tetrahydrobiopterin (BH4) or the analogues. Stock BH4 was stored at −20° C. and the dilutions were prepared using saline just before adding the drug into the bath. Solutions of analogues were stored at 4° C. Cumulatively increasing concentrations of the analogues were added to the bath and the extent of relaxation was measured when it had stabilised. Another ring from the same rat was treated in parallel with the solvent for the analogue. The solvent used was NH4OH. The results are shown graphically in FIGS. 1 and 2.

rat aorta = test: Rat aorta ring relaxation (endogenous tetrahydrobiopterin present); details: normal rings, phenylephrine-contracted
Description: as §1

Q: What does the source list for `CC(=O)C1=Nc2c(nc(N)[nH]c2=O)NC1(C)C` [wsg1002, 6-Acetyl-2-amino-7,7-dimethyl-7,8-dihydro-3H-pteridin-4-one]?
A: nitric oxide production compared with vehicle control (eNOS): doubling; activation at 1 µM (iNOS; 72 h, tested at 1 microM in macrophages, P = promotes NOS activity, read-out: iNOS effect *H155): 20 to 50%; stimulation of nitric oxide synthesis vs controls (iNOS; DAHP 10^-2 M depleted macrophages, 72 hrs): increases were statistically significant; relaxation of rat pulmonary artery rings (rat pulmonary artery): no action; also recorded: no effect; relaxation of rat aorta rings (rat aorta): no action; also recorded: no effect
